Test results reported in the supplement of paper PMC13380429.

Columns and labels:
Conditions in all cases: 72 h
Caco-2 [1] = assay: drug sensitivity score (DSS) for viability; higher = more toxic; extreme values may be limits of the assay
Calu-3 [2] = assay: as above
Vero E6 [3] = assay: as above
HepG2 [4] = assay: as above
U2OS [5] = assay: as above
Caco-2 [6] = assay: cell viability relative to DMSO; higher = less toxic
Calu-3 [7] = assay: as above
Vero E6 [8] = assay: as above
HepG2 [9] = assay: as above
U2OS [10] = assay: as above
Caco-2 [11] = assay: relative viability EC50 (midpoint between 100% and the lowest measured viability); higher = less toxic
Calu-3 [12] = assay: as above
Vero E6 [13] = assay: as above
HepG2 [14] = assay: as above
U2OS [15] = assay: as above

Structure (SMILES) | drug sensitivity score (Caco-2 [1]) | drug sensitivity score (Calu-3 [2]) | drug sensitivity score (Vero E6 [3]) | drug sensitivity score (HepG2 [4]) | drug sensitivity score (U2OS [5]) | cell viability (Caco-2 [6]; 1 nM) | cell viability (Caco-2 [6]; 10 nM) | cell viability (Caco-2 [6]; 100 nM) | cell viability (Caco-2 [6]; 1000 nM) | cell viability (Caco-2 [6]; 10000 nM) | cell viability (Calu-3 [7]; 1 nM) | cell viability (Calu-3 [7]; 10 nM) | cell viability (Calu-3 [7]; 100 nM) | cell viability (Calu-3 [7]; 1000 nM) | cell viability (Calu-3 [7]; 10000 nM) | cell viability (Vero E6 [8]; 1 nM) | cell viability (Vero E6 [8]; 10 nM) | cell viability (Vero E6 [8]; 100 nM) | cell viability (Vero E6 [8]; 1000 nM) | cell viability (Vero E6 [8]; 10000 nM) | cell viability (HepG2 [9]; 1 nM) | cell viability (HepG2 [9]; 10 nM) | cell viability (HepG2 [9]; 100 nM) | cell viability (HepG2 [9]; 1000 nM) | cell viability (HepG2 [9]; 10000 nM) | cell viability (U2OS [10]; 1 nM) | cell viability (U2OS [10]; 10 nM) | cell viability (U2OS [10]; 100 nM) | cell viability (U2OS [10]; 1000 nM) | cell viability (U2OS [10]; 10000 nM) | relative viability EC50 (Caco-2 [11]) | relative viability EC50 (Calu-3 [12]) | relative viability EC50 (Vero E6 [13]) | relative viability EC50 (HepG2 [14]) | relative viability EC50 (U2OS [15])
O=C(CC12CC3CC(CC(C3)C1)C2)Nc1cccc2nc(NCCNCCO)ccc12 | 0 | 0 | 0 | 0 | 0 | 91.2% | 93.1% | 93.8% | 91.8% | 91.8% | 99% | 101% | 92.1% | 98.4% | 94.9% | 96% | 102% | 95.8% | 91.4% | 100% | 97.5% | 94.7% | 93.7% | 96.8% | 99.9% | 96.1% | 102% | 95.2% | 97.9% | 95.1% | > 10 µM | > 10 µM | > 10 µM | > 10 µM | > 10 µM
Cc1c(CN2CCN(C(=O)[C@H](C)O)CC2)sc2c(N3CCOCC3)nc(-c3cnc(N)nc3)nc12 [GDC-0980] | 11 | 11.9 | 8.8 | 11.1 | 7.8 | 99.4% | 88.5% | 93.1% | 47.8% | 22.4% | 107% | 101% | 93.6% | 42.2% | 19.2% | 96.5% | 101% | 87.7% | 62.9% | 23.4% | 104% | 102% | 89.9% | 49.5% | 15.9% | 101% | 98% | 98.8% | 78.9% | 18.1% | 0.561 µM | 0.537 µM | 0.899 µM | 0.67 µM | 1.53 µM
CCC(=O)O[C@]1(C(=O)CCl)[C@@H](C)C[C@H]2[C@@H]3C[C@H](F)C4=CC(=O)C=C[C@]4(C)[C@@]3(F)[C@@H](O)C[C@@]21C [halobetasol-propionate] | 0 | 0 | 0 | 0 | 0 | 105% | 105% | 104% | 108% | 99.4% | 81.1% | 82.1% | 77.5% | 93.1% | 80% | 99.9% | 101% | 104% | 102% | 106% | 106% | 93.9% | 102% | 98.1% | 111% | 96.7% | 102% | 95.8% | 101% | 93.6% | > 10 µM | > 10 µM | > 10 µM | > 10 µM | > 10 µM
CC[C@@H]1C(=O)N(C)c2cnc(Nc3ccc(C(=O)NC4CCN(C)CC4)cc3OC)nc2N1C1CCCC1 [BI-2536] | 13.6 | 8.6 | 12.8 | 26.1 | 19.8 | 94.4% | 96.5% | 56.8% | 61.3% | 31.5% | 93.3% | 97.3% | 85.4% | 77.7% | 3.8% | 96.2% | 98.7% | 103% | 37.4% | 1.1% | 106% | 92.2% | 27.4% | 24.2% | 7.7% | 97% | 103% | 53.1% | 28% | 8.1% | 0.148 µM | 1.66 µM | 0.805 µM | 0.0445 µM | 0.132 µM
FC(F)(F)c1ccc(Nc2ncnc3cc(-c4ncccc4C(F)(F)F)ccc23)cc1 [MK-2295] | 1.2 | 0.5 | 0 | 0 | 0 | 100% | 95.8% | 91.9% | 83.9% | 90.6% | 112% | 96.9% | 101% | 100% | 81.9% | 99.7% | 98% | 98.3% | 97.8% | 95.2% | 92.7% | 94.9% | 91.5% | 116% | 98.4% | 100% | 95.5% | 101% | 98% | 97.5% | > 10 µM | > 10 µM | > 10 µM | > 10 µM | > 10 µM
CCCC(=O)O[C@]1(C(=O)CO)CC[C@H]2[C@@H]3CCC4=CC(=O)CC[C@]4(C)[C@H]3[C@@H](O)C[C@@]21C [hydrocortisone-butyrate] | 0 | 0.1 | 0 | 0 | 0 | 103% | 95.2% | 98.4% | 104% | 102% | 109% | 101% | 102% | 95.8% | 89.1% | 95.5% | 99% | 91.5% | 102% | 105% | 95.1% | 102% | 93.8% | 102% | 101% | 97% | 95.8% | 97.1% | 95.3% | 95.6% | > 10 µM | > 10 µM | > 10 µM | > 10 µM | > 10 µM
CN1CCN(c2ccc3[nH]c(-c4ccc5[nH]c(-c6ccc(O)cc6)nc5c4)nc3c2)CC1 [pibenzimol] | 0 | 0 | 0 | 8.8 | 0 | 98.6% | 88.8% | 98% | 100% | 103% | 108% | 93.8% | 106% | 116% | 122% | 100% | 100% | 96% | 98.9% | 98.3% | 101% | 97.4% | 81.2% | 64.1% | 42.7% | 103% | 97.2% | 101% | 100% | 93.8% | > 10 µM | > 10 µM | > 10 µM | 0.35 µM | > 10 µM
